This experiment has as its system CD2F1 mice, intracerebral L1210 leukemia, survival T/C. Nature of the experiment: NCI In Vivo Anticancer Drug Screen. Data for tumor model L1210 Leukemia (intracerebral) in CD2F1 (CDF1) mice. To be noted: higher = longer survival. The method, then:
The antitumor activity of compounds was measured in mice bearing transplantable tumors. Survival or tumor size were measured and the results are expressed as the measurement made in the treated group (T) divided by the measurement made in the vehicle treated control group (C). The tumor model used in this assay is L1210 Leukemia (intracerebral) in CD2F1 (CDF1) mice

[1] abbreviates: endpoint: median survival time, dose: 1.0 mg/kg/injection, schedule: Q01DX009 (ip), vehicle: saline.
[2] abbreviates: endpoint: median survival time, dose: 2.0 mg/kg/injection, schedule: Q01DX009 (ip), vehicle: saline.
Setting [3] is: endpoint: median survival time, dose: 4.0 mg/kg/injection, schedule: Q01DX009 (ip), vehicle: saline.
Where [4] appears, read: endpoint: median survival time, dose: 8.0 mg/kg/injection, schedule: Q01DX009 (ip), vehicle: saline with Tween-80.
Setting [5] is: endpoint: median survival time, dose: 8.0 mg/kg/injection, schedule: Q01DX009 (ip), vehicle: saline.
The mark [6] stands for this setting: endpoint: median survival time, dose: 16.0 mg/kg/injection, schedule: Q01DX009 (ip), vehicle: saline with Tween-80.
[7] abbreviates: endpoint: median survival time, dose: 16.0 mg/kg/injection, schedule: Q01DX005 (ip), vehicle: saline with Tween-80.
[8] abbreviates: endpoint: median survival time, dose: 32.0 mg/kg/injection, schedule: Q01DX005 (ip), vehicle: saline with Tween-80.

Several values for one entry are separate records, joined by “and”; a condition that tells them apart may be missing. Equal values may be shown once. Toxic doses and inconclusive results are not listed.

As for `COc1cccc2c1C(=O)c1c(O)c3c(c(O)c1C2=O)C[C@@](O)(/C(C)=N/NC(=O)c1ccccc1)C[C@@H]3OC1CC(N)C(O)C(C)O1` (stereo not given in full), the T/C by setting is: (endpoint: median survival time, dose: 1.0 mg/kg/injection, schedule: Q01DX009 (ip), vehicle: saline with Tween-80) 114 % of control; under setting [1], 98 % of control and 104 % of control; (endpoint: median survival time, dose: 2.0 mg/kg/injection, schedule: Q01DX009 (ip), vehicle: saline with Tween-80) 123 % of control; under setting [2], 103 % of control and 104 % of control; (endpoint: median survival time, dose: 4.0 mg/kg/injection, schedule: Q01DX009 (ip), vehicle: saline with Tween-80) 123 % of control; under setting [3], 106 % of control and 110 % of control. The T/C under setting [4] is 101 % of control; the T/C under setting [5] was 92 % of control and 116 % of control; the T/C under setting [6] is 89 % of control.
As for `O=P1(NCCCl)OCCCN1CCCl` (stereo not given), the T/C (endpoint: median survival time, dose: 40.0 mg/kg/injection, schedule: Q01DX001 (ip), vehicle: saline) is 97 % of control; the T/C (endpoint: median survival time, dose: 80.0 mg/kg/injection, schedule: Q01DX001 (ip), vehicle: saline) is 102 % of control; the T/C (endpoint: median survival time, dose: 160.0 mg/kg/injection, schedule: Q01DX001 (ip), vehicle: saline) is 105 % of control; the T/C (endpoint: median survival time, dose: 320.0 mg/kg/injection, schedule: Q01DX001 (ip), vehicle: saline) was 113 % of control.
As for `CN(C)/N=N/c1nc[nH]c1C(N)=O`, the T/C reads like this: (endpoint: mean survival time, dose: 20.0 mg/kg/injection, schedule: Q01DX007 (ip), vehicle: DMSO) 100 % of control; (endpoint: mean survival time, dose: 20.0 mg/kg/injection, schedule: Q01DX007 (ip), vehicle: other) 106 % of control; (endpoint: mean survival time, dose: 25.0 mg/kg/injection, schedule: Q01DX009 (ip), vehicle: saline) 113 % of control; (endpoint: mean survival time, dose: 40.0 mg/kg/injection, schedule: Q01DX007 (ip), vehicle: DMSO) 103 % of control; (endpoint: mean survival time, dose: 40.0 mg/kg/injection, schedule: Q01DX007 (ip), vehicle: other) 106 % of control; (endpoint: mean survival time, dose: 50.0 mg/kg/injection, schedule: Q01DX009 (ip), vehicle: saline) 111 % of control. In addition, the T/C (endpoint: mean survival time, dose: 80.0 mg/kg/injection, schedule: Q01DX007 (ip), vehicle: DMSO) is 116 % of control; the T/C (endpoint: mean survival time, dose: 80.0 mg/kg/injection, schedule: Q01DX007 (ip), vehicle: other) was 107 % of control; the T/C (endpoint: mean survival time, dose: 100.0 mg/kg/injection, schedule: Q01DX009 (ip), vehicle: saline) was 111 % of control; the T/C (endpoint: mean survival time, dose: 160.0 mg/kg/injection, schedule: Q01DX007 (ip), vehicle: DMSO) was 121 % of control; the T/C (endpoint: mean survival time, dose: 160.0 mg/kg/injection, schedule: Q01DX007 (ip), vehicle: other) is 121 % of control; the T/C (endpoint: mean survival time, dose: 320.0 mg/kg/injection, schedule: Q01DX007 (ip), vehicle: DMSO) is 103 % of control. Besides, the T/C runs as follows: (endpoint: mean survival time, dose: 320.0 mg/kg/injection, schedule: Q01DX007 (ip), vehicle: other) 112 % of control; under setting [7], 104 % of control; under setting [8], 120 % of control; (endpoint: median survival time, dose: 64.0 mg/kg/injection, schedule: Q01DX005 (ip), vehicle: saline with Tween-80) 110 % of control; (endpoint: median survival time, dose: 128.0 mg/kg/injection, schedule: Q01DX005 (ip), vehicle: saline with Tween-80) 113 % of control.
Turning to `CCCCCN(C)/N=N/c1nc[nH]c1C(N)=O`, the T/C was 112 % of control under setting [7]; 122 % of control under setting [8]; 92 % of control (endpoint: median survival time, dose: 256.0 mg/kg/injection, schedule: Q01DX005 (ip), vehicle: saline with Tween-80).
On to `COC(=O)c1cccc(N=NN(C)C)c1`, for which the T/C by setting is: (endpoint: median survival time, dose: 8.0 mg/kg/injection, schedule: Q01DX005 (ip), vehicle: saline + alcohol) 104 % of control; (endpoint: median survival time, dose: 16.0 mg/kg/injection, schedule: Q01DX005 (ip), vehicle: saline + alcohol) 100 % of control; (endpoint: median survival time, dose: 32.0 mg/kg/injection, schedule: Q01DX005 (ip), vehicle: saline + alcohol) 104 % of control; (endpoint: median survival time, dose: 64.0 mg/kg/injection, schedule: Q01DX005 (ip), vehicle: saline + alcohol) 113 % of control; (endpoint: median survival time, dose: 128.0 mg/kg/injection, schedule: Q01DX005 (ip), vehicle: saline + alcohol) 117 % of control.
Take `O=NN(CCCl)C(=O)NCCCl`: the T/C is 175 % of control (endpoint: mean survival time, dose: 10.0 mg/kg/injection, schedule: Q01DX001 (ip), vehicle: saline); 184 % of control (endpoint: mean survival time, dose: 15.0 mg/kg/injection, schedule: Q01DX002 (ip), vehicle: saline + alcohol); 169 % of control and 182 % of control (endpoint: mean survival time, dose: 20.0 mg/kg/injection, schedule: Q01DX001 (ip), vehicle: saline + alcohol); 210 % of control and 254 % of control (endpoint: mean survival time, dose: 20.0 mg/kg/injection, schedule: Q01DX001 (ip), vehicle: saline); 281 % of control (endpoint: mean survival time, dose: 20.0 mg/kg/injection, schedule: Q01DX002 (ip), vehicle: saline + alcohol); 348 % of control (endpoint: mean survival time, dose: 25.0 mg/kg/injection, schedule: Q01DX002 (ip), vehicle: saline + alcohol). In addition, the T/C (endpoint: mean survival time, dose: 30.0 mg/kg/injection, schedule: Q01DX001 (ip), vehicle: saline + alcohol) was 220 % of control and 319 % of control; the T/C (endpoint: mean survival time, dose: 30.0 mg/kg/injection, schedule: Q01DX002 (ip), vehicle: saline + alcohol) was 184 % of control; the T/C (endpoint: mean survival time, dose: 40.0 mg/kg/injection, schedule: Q01DX001 (ip), vehicle: saline + alcohol) was 343 % of control; the T/C (endpoint: mean survival time, dose: 40.0 mg/kg/injection, schedule: Q01DX001 (ip), vehicle: saline) was 202 % of control; the T/C (endpoint: median survival time, dose: 4.0 mg/kg/injection, schedule: Q01DX001 (ip), vehicle: saline + alcohol) is 93 % of control; the T/C (endpoint: median survival time, dose: 8.0 mg/kg/injection, schedule: Q01DX001 (ip), vehicle: saline + alcohol) was 97 % of control. The T/C is 173 % of control (endpoint: median survival time, dose: 12.5 mg/kg/injection, schedule: Q01DX001 (ip), vehicle: DMSO); 97 % of control (endpoint: median survival time, dose: 16.0 mg/kg/injection, schedule: Q01DX001 (ip), vehicle: saline + alcohol); 305 % of control (endpoint: median survival time, dose: 20.0 mg/kg/injection, schedule: Q01DX001 (ip), vehicle: distilled water + alcohol); 190 % of control (endpoint: median survival time, dose: 20.0 mg/kg/injection, schedule: Q01DX001 (ip), vehicle: saline + alcohol); 122 % of control and 153 % of control and 270 % of control (endpoint: median survival time, dose: 24.0 mg/kg/injection, schedule: Q01DX001 (ip), vehicle: saline + alcohol); 253 % of control (endpoint: median survival time, dose: 25.0 mg/kg/injection, schedule: Q01DX001 (ip), vehicle: DMSO). For the same molecule, the T/C was 201 % of control and 313 % of control (endpoint: median survival time, dose: 30.0 mg/kg/injection, schedule: Q01DX001 (ip), vehicle: saline + alcohol); 183 % of control (endpoint: median survival time, dose: 40.0 mg/kg/injection, schedule: Q01DX001 (ip), vehicle: distilled water + alcohol); 220 % of control (endpoint: median survival time, dose: 40.0 mg/kg/injection, schedule: Q01DX001 (ip), vehicle: saline + alcohol); 166 % of control (endpoint: median survival time, dose: 60.0 mg/kg/injection, schedule: Q01DX001 (ip), vehicle: saline + alcohol).
Take `CNc1nc(N(C)C)nc(N(C)C)n1`: for the setting “endpoint: median survival time, dose: 12.5 mg/kg/injection, schedule: Q01DX009 (ip), vehicle: saline”, the T/C was 98 % of control and 114 % of control.
Turning to `COc1cc([C@@H]2c3cc4c(cc3[C@@H](OC3OC5COC(C)OC5C(O)C3O)[C@H]3COC(=O)[C@H]23)OCO4)cc(OC)c1O` (stereo not given in full), the T/C reads like this: (endpoint: median survival time, dose: 0.5 mg/kg/injection, schedule: Q01DX009 (ip), vehicle: saline) 103 % of control; under setting [1], 101 % of control; under setting [2], 94 % of control; under setting [3], 91 % of control; under setting [5], 102 % of control.
Regarding `C[C@]1(O)CC[C@H]2[C@@H]3CCC4=CC(=O)CC[C@]4(C)[C@@]3(F)[C@@H](O)C[C@@]21C`, the T/C was 112 % of control under setting [4]; 112 % of control under setting [6]; 104 % of control (endpoint: median survival time, dose: 32.0 mg/kg/injection, schedule: Q01DX009 (ip), vehicle: saline with Tween-80); 104 % of control (endpoint: median survival time, dose: 64.0 mg/kg/injection, schedule: Q01DX009 (ip), vehicle: saline with Tween-80); 122 % of control (endpoint: median survival time, dose: 128.0 mg/kg/injection, schedule: Q01DX009 (ip), vehicle: saline with Tween-80); 104 % of control (endpoint: median survival time, dose: 256.0 mg/kg/injection, schedule: Q01DX009 (ip), vehicle: saline with Tween-80). Also, the T/C (endpoint: median survival time, dose: 512.0 mg/kg/injection, schedule: Q01DX009 (ip), vehicle: saline with Tween-80) is 96 % of control.
`CC(=O)NNC(=O)c1ccccn1`: the T/C reads like this: (endpoint: median survival time, dose: 100.0 mg/kg/injection, schedule: Q01DX005 (ip), vehicle: Klucel (hydroxypropylcellulose) (HPC)) 103 % of control; (endpoint: median survival time, dose: 200.0 mg/kg/injection, schedule: Q01DX005 (ip), vehicle: Klucel (hydroxypropylcellulose) (HPC)) 105 % of control.

The record behind these values is PubChem BioAssay AID260 (DTP/NCI, 2004).
